In PubChem BioAssay (NCI):
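Exposure lasted 48 hours, with cells grown in 96-well plates and compounds tested at five concentrations. Definition used: TGI = concentration required for complete inhibition of growth.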

What was measured:
Assay in all cases: growth of human tumour cells (NCI), 48 h
[1] = tested on: ACHN renal
[2] = tested on: CAKI-1 renal
[3] = tested on: HCT-116 colon
[4] = tested on: HOP-92 NSCLC
[5] = tested on: K-562 leukemia
[6] = tested on: M14 melanoma
[7] = tested on: MCF7 breast
[8] = tested on: MDA-MB-231 breast
[9] = tested on: NCI-H226 lung
[10] = tested on: NCI/ADR-RES ovarian
[11] = tested on: OVCAR-4 ovarian
[12] = tested on: OVCAR-8 ovarian
[13] = tested on: SF-539 CNS
[14] = tested on: SK-MEL-28 melanoma
[15] = tested on: SNB-19 CNS
[16] = tested on: EKVX NSCLC
[17] = tested on: HCT-15 colon
[18] = tested on: IGROV1 ovarian
[19] = tested on: MALME-3M melanoma
[20] = tested on: NCI-H522 lung

Compound | TGI [1] [µM] | TGI [2] [µM] | TGI [3] [µM] | TGI [4] [µM] | TGI [5] [µM] | TGI [6] [µM] | TGI [7] [µM] | TGI [8] [µM] | TGI [9] [µM] | TGI [10] [µM] | TGI [11] [µM] | TGI [12] [µM] | TGI [13] [µM] | TGI [14] [µM] | TGI [15] [µM] | TGI [16] [µM] | TGI [17] [µM] | TGI [18] [µM] | TGI [19] [µM] | TGI [20] [µM]
COc1ccccc1/C=C1\S/C(=N/Nc2nc(C)c(C(C)=O)s2)NC1=O | > 100 | > 100 | > 100 | 48 | > 100 | > 100 | 67 | 65 | 39.8 | > 100 | > 100 | > 100 | > 100 | > 100 | > 100 |  |  |  |  | 
Cc1cn(Cc2cccc(C3=NCCCN3)c2)c(=O)n(Cc2cccc(C3=NCCCN3)c2)c1=O | > 100 | > 100 | > 100 | > 100 | > 100 | > 100 | > 100 | > 100 |  | > 100 | > 100 | > 100 |  | > 100 | > 100 | > 100 | > 100 | > 100 | > 100 | > 100
O=c1[nH][nH]c(=O)n1/N=C/c1ccccc1 | > 100 | > 100 | > 100 | > 100 | > 100 | > 100 | > 100 | > 100 | > 100 | > 100 |  | > 100 | > 100 | > 100 | > 100 | > 100 | > 100 | > 100 |  | 
O=C(COc1ccccc1)N(C(=O)N1CCN(c2ccccc2)CC1)S(=O)(=O)c1ccccc1 | > 100 | > 100 | > 100 | > 100 | > 100 | > 100 | > 100 | > 100 | > 100 | > 100 | > 100 | > 100 | > 100 | > 100 | > 100 | > 100 | > 100 |  | > 100 | > 100
C=CCN1C[C@H](C)N([C@H](c2ccc(C(=O)N(CC)CC)cc2)c2cccc(OC)c2)C[C@H]1C | > 100 | > 100 | > 100 | 63.9 |  | > 100 | > 100 | > 100 | 95.6 | > 100 | > 100 | > 100 | > 100 | > 100 | > 100 | > 100 | > 100 | > 100 | 47 | > 100
Cc1nc2cc3ccccc3cc2[nH]c1=O |  | > 100 | > 100 | 80.2 | > 100 | > 100 | > 100 | > 100 | > 100 | > 100 | > 100 | > 100 | > 100 | > 100 | > 100 | > 100 | > 100 | > 100 | > 100 | > 100
CC(C)OC(=O)[C@H]1ON2O[C@H](O[C@@H]3CCCC[C@H]3c3ccccc3)C([Si](C)(C)c3ccccc3)[C@H]3OC(=O)[C@@H]1C32 (stereo partly drawn) | > 100 | > 100 | > 100 | > 100 | > 100 | > 100 | > 100 | > 100 | > 100 | > 100 |  | > 100 | > 100 | > 100 | > 100 | > 100 | > 100 | > 100 |  | > 100
COc1c(C(C)(C)C)cc(CC2C(=O)C=CC2=O)cc1C(C)(C)C | 22.5 | 30.5 | 13 | 37 | 14.1 | 39.6 | 45.5 | 36.5 |  | > 80.6 | 89.5 | 66.9 | 48.3 | 43.4 | 33.9 | 37.7 | 37.6 | 29.2 | 49.6 | 5.03
O=C(CSCC(=O)N/N=C\c1ccc(O)c(O)c1O)N/N=C\c1ccc(O)c(O)c1O | 22 | 37.1 | 13.4 | > 100 |  | 21.5 | 57.4 | 78.1 | 53.1 | 3.16 | 9.22 | > 100 | 37.9 | 44.2 | > 100 | 50.4 | 29.1 | 42.2 | 52.3 | 44.4
O=[N+]([O-])c1ccc2sc(/C=N/c3ccccn3)cc2c1 | > 100 | > 100 | > 100 | > 100 | 96.6 | > 100 | > 100 | > 100 |  | > 100 |  | > 100 | > 100 | > 100 | > 100 | > 100 | > 100 | > 100 | > 100 | > 100
O=[N+]([O-])c1cc(-[n+]2cc([O-])on2)ccc1Cl | 29.5 | 5.01 | 39.8 | 42.1 | > 100 | 41.8 | 43.3 | 37.7 | > 100 | 58.8 | 29.1 | 49.7 |  | 29.6 | 27.1 | 37.8 | 73.7 | 64.5 | 32.9 | 31.7
CCOC(=O)C1C(c2ccc(OC)cc2)c2c([nH][nH]c2=O)CC1(C)O (stereo not drawn) | > 100 | > 100 | > 100 | > 100 |  | > 100 | > 100 | > 100 |  | > 100 | > 100 | > 100 | > 100 | > 100 | > 100 | > 100 | > 100 | > 100 | > 100 | > 100
